Source: patent US11352354B2, “Substituted penta-fused hexa-heterocyclic compounds, preparation method therefor, drug combination and use thereof” (Xiamen University, priority 2017, dated 2022)
Marks after values point to notes of the source that are not given here.

Assays:
MDA-MB-231 cells = test: Vacuolation of MDA-MB-231 cells caused by inhibition of compounds on PIKfyve (microscopy); format: cell-based; details: MDA-MB-231 cells
From the text: I. Determination of Vacuolation of MDA-MB-231 Cells Caused by Inhibition of Compounds on PIKfyve
When the activity of pikfyve kinase is inhibited, vacuoles will be produced in cytoplasm. By observing the number of vacuoles under a microscope, the ability of compounds to inhibit the activity of pikfyve kinase can be known.
1. Cell plating: cells in logarithmic growth phase were made into a single cell suspension, counted with a cell counter and diluted to a cell concentration of about 2×10^5/mL. Then, the cells were inoculated into a 12-well plate, and cultured in a 37° C., 5% CO2 incubator.
3. Vacuolation test: after 24 and 48 hours of culture, photos were taken under an […] to observe the degree of vacuolation.
(In the table, “+” represents the degree of vacuolation; more “+” indicates more obvious vacuolation; “−” represents no vacuolation)

JeKo-1 cells = test: Tumor cell growth inhibition by MTS method, JeKo-1; format: cell-based; details: 5 days of culture; for inhibition at 10 µM: read-out: cell growth inhibition rate of compounds at 10 μM
Procedure: III. Determination of IC50 Value of Compound for Inhibiting Tumor Cell Growth by MTS Method
1. Cell plating: cells in logarithmic growth phase were counted and inoculated in a 96-well plate (20000 cells per well).
2. Administrating agent to cell: 10 mM compound mother solution in DMSO was subjected to 3 fold-gradient dilution, to set 8 concentrations, which were then added to various wells, with three replicates for each concentration, and three blank wells (only culture medium) and three negative controls (containing 0.1% DMSO) on each plate.
3. […] The OD value at 490 nm was measured with microplate reader OD490. The cell growth inhibition rate was calculated by the following formula: Cell growth inhibition rate %=1−(ODexperimental group−ODblank group)/(ODnegative group−ODblank group)×100%
The semi-inhibitory concentration IC50 of the compound acting on cell growth was calculated using GradPad Prism 5 software according to the measured cell growth inhibition rate.
In the following table it lists the IC50 value or the inhibition rates of some compounds at 10 μM against JeKo-1 cells

## Cc1ccc(NC(=O)c2cccc(C(F)(F)F)c2)cc1Nc1cc(-c2cccnc2)nc2c1ccn2C [I-b-1]
MDA-MB-231 cells
  degree of vacuolation, 1 μM, 24 h: ++
  degree of vacuolation, 1 μM, 48 h: ++
  degree of vacuolation, 10 μM, 24 h: +++
  degree of vacuolation, 10 μM, 48 h: +++
JeKo-1 cells; Homo sapiens, JeKo-1, 120 h
  IC50: 2.77 µM

## Cc1ccc(NC(=O)c2cccc(C(F)(F)F)c2)cc1Nc1cc(-c2ccncc2)nc2c1ccn2C [I-b-2]
MDA-MB-231 cells
  degree of vacuolation, 1 μM, 24 h: −
  degree of vacuolation, 1 μM, 48 h: −
  degree of vacuolation, 10 μM, 24 h: ++
  degree of vacuolation, 10 μM, 48 h: ++
JeKo-1 cells; Homo sapiens, JeKo-1, 120 h
  IC50: 1.6 µM

## Cc1ccc(C(=O)Nc2cccc(C(F)(F)F)c2)cc1Nc1cc(-c2cccnc2)nc2c1ccn2C [I-b-3]
MDA-MB-231 cells
  degree of vacuolation, 1 μM, 24 h: +
  degree of vacuolation, 1 μM, 48 h: +
  degree of vacuolation, 10 μM, 24 h: ++
  degree of vacuolation, 10 μM, 48 h: ++
JeKo-1 cells
  IC50: 2.68 µM

## Cc1ccc(C(=O)Nc2cccc(C(F)(F)F)c2)cc1Nc1cc(-c2cccnc2)nc2c1ccn2C [I-b-4]
MDA-MB-231 cells
  degree of vacuolation, 1 μM, 24 h: −
  degree of vacuolation, 1 μM, 48 h: −
JeKo-1 cells
  IC50: 1.33 µM

## Cc1ccc(NC(=O)c2cccc(C(F)(F)F)c2)cc1Nc1cc(-c2ccncc2)c2cc[nH]c2n1 [I-c-11]
MDA-MB-231 cells
  degree of vacuolation, 1 μM, 24 h: ++
  degree of vacuolation, 1 μM, 48 h: ++
  degree of vacuolation, 10 μM, 24 h: ++
  degree of vacuolation, 10 μM, 48 h: ++
JeKo-1 cells; Homo sapiens, JeKo-1, 120 h
  IC50: 6.13 µM

## Cc1ccc(NC(=O)c2cccc(C(F)(F)F)c2)cc1Nc1cc(-c2cccnc2)c2cc[nH]c2n1 [I-c-12]
MDA-MB-231 cells
  degree of vacuolation, 1 μM, 24 h: +++
  degree of vacuolation, 1 μM, 48 h: +++
  degree of vacuolation, 10 μM, 24 h: +++
  degree of vacuolation, 10 μM, 48 h: +++
JeKo-1 cells; Homo sapiens, JeKo-1, 120 h
  IC50: 1.1 µM

## Cc1ccc(NC(=O)c2cccc(C(F)(F)F)c2)cc1Nc1nc(-c2cccnc2)nc2[nH]ccc12 [II-a-1]
MDA-MB-231 cells
  degree of vacuolation, 1 μM, 48 h: +
  degree of vacuolation, 10 μM, 48 h: +
JeKo-1 cells; Homo sapiens, JeKo-1, 120 h
  inhibition at 10 µM: 17.3%

## Cc1ccc(C(=O)Nc2cccc(C(F)(F)F)c2)cc1Nc1nc(-c2cccnc2)nc2[nH]ccc12 [II-a-2]
MDA-MB-231 cells
  degree of vacuolation, 1 μM, 24 h: +
  degree of vacuolation, 1 μM, 48 h: +
  degree of vacuolation, 10 μM, 24 h: +
  degree of vacuolation, 10 μM, 48 h: +
JeKo-1 cells; Homo sapiens, JeKo-1, 120 h
  inhibition at 10 µM: 43.4%

## Cc1ccc(C(=O)Nc2cccc(C(F)(F)F)c2)cc1Nc1nc(-c2ccncc2)nc2[nH]ccc12 [II-a-4]
MDA-MB-231 cells
  degree of vacuolation, 1 μM, 24 h: −
  degree of vacuolation, 1 μM, 48 h: −
  degree of vacuolation, 10 μM, 24 h: +
  degree of vacuolation, 10 μM, 48 h: +
JeKo-1 cells; Homo sapiens, JeKo-1, 120 h
  inhibition at 10 µM: 18.7%

## Cc1ccc(C(=O)Nc2cccc(C(F)(F)F)c2)cc1Nc1nc(-c2cccnc2)nc2c1ccn2C [II-b-2]
MDA-MB-231 cells
  degree of vacuolation, 1 μM, 24 h: +
  degree of vacuolation, 1 μM, 48 h: +
  degree of vacuolation, 10 μM, 24 h: +
  degree of vacuolation, 10 μM, 48 h: +
JeKo-1 cells; Homo sapiens, JeKo-1, 120 h
  IC50: 2.85 µM

## Cc1ccc(C(=O)Nc2cccc(C(F)(F)F)c2)cc1Nc1nc(-c2cccnc2)nc2c1cnn2C [III-b-1]
MDA-MB-231 cells
  degree of vacuolation, 1 μM, 24 h: +
  degree of vacuolation, 1 μM, 48 h: ++
  degree of vacuolation, 10 μM, 24 h: +
  degree of vacuolation, 10 μM, 48 h: ++
JeKo-1 cells; Homo sapiens, JeKo-1, 120 h
  IC50: 0.939 µM

## Cc1ccc(C(=O)Nc2cccc(C(F)(F)F)c2)cc1Nc1nc(-c2cccc(Cl)c2)nc2c1cnn2C [III-b-3]
MDA-MB-231 cells
  degree of vacuolation, 1 μM, 24 h: −
  degree of vacuolation, 10 μM, 24 h: −
JeKo-1 cells; Homo sapiens, JeKo-1, 120 h
  IC50: 4.86 µM

## Cc1ccc(NC(=O)c2cccc(C(F)(F)F)c2)cc1Nc1nc(-c2cccnc2)nc2c1cnn2C [III-b-10]
MDA-MB-231 cells
  degree of vacuolation, 1 μM, 24 h: −
  degree of vacuolation, 1 μM, 48 h: +
  degree of vacuolation, 10 μM, 24 h: −
  degree of vacuolation, 10 μM, 48 h: +
JeKo-1 cells; Homo sapiens, JeKo-1, 120 h
  IC50: 1.88 µM

## Cn1ncc2c(NCc3cccnc3)nc(-c3cccc(NC(=O)Nc4cccc(C(F)(F)F)c4)c3)nc21 [III-b-14]
MDA-MB-231 cells
  degree of vacuolation, 1 μM, 24 h: +
  degree of vacuolation, 1 μM, 48 h: +
  degree of vacuolation, 10 μM, 24 h: +
  degree of vacuolation, 10 μM, 48 h: +
JeKo-1 cells; Homo sapiens, JeKo-1, 120 h
  IC50: 6.78 µM

## Cn1ncc2c(NCc3cccnc3)nc(-c3cccc(NC(=S)Nc4cccc(C(F)(F)F)c4)c3)nc21 [III-b-15]
MDA-MB-231 cells
  degree of vacuolation, 1 μM, 24 h: −
  degree of vacuolation, 1 μM, 48 h: −
  degree of vacuolation, 10 μM, 24 h: +
  degree of vacuolation, 10 μM, 48 h: +
JeKo-1 cells; Homo sapiens, JeKo-1, 120 h
  inhibition at 10 µM: 24.1%

## Cc1ccc(NC(=O)c2cccc(C(F)(F)F)c2)cc1Nc1nc(-c2cccnc2)nc2[nH]cnc12 [IV-a-1]
MDA-MB-231 cells
  degree of vacuolation, 1 μM, 24 h: +
  degree of vacuolation, 1 μM, 48 h: ++
  degree of vacuolation, 10 μM, 24 h: +
  degree of vacuolation, 10 μM, 48 h: ++
JeKo-1 cells; Homo sapiens, JeKo-1, 120 h
  inhibition at 10 µM: 18.3%

## Cc1ccc(C(=O)Nc2cccc(C(F)(F)F)c2)cc1Nc1nc(-c2ccncc2)nc2[nH]cnc12 [IV-a-2]
MDA-MB-231 cells
  degree of vacuolation, 1 μM, 24 h: +
  degree of vacuolation, 1 μM, 48 h: ++
  degree of vacuolation, 10 μM, 24 h: +
  degree of vacuolation, 10 μM, 48 h: ++
JeKo-1 cells; Homo sapiens, JeKo-1, 120 h
  inhibition at 10 µM: 19%

## Cc1ccc(C(=O)Nc2cccc(C(F)(F)F)c2)cc1Nc1nc(-c2cccnc2)nc2[nH]cnc12 [IV-a-3]
MDA-MB-231 cells
  degree of vacuolation, 1 μM, 48 h: +
  degree of vacuolation, 10 μM, 48 h: +
JeKo-1 cells; Homo sapiens, JeKo-1, 120 h
  inhibition at 10 µM: 16.2%

## Cc1ccc(C(=O)Nc2cccc(C(F)(F)F)c2)cc1Nc1nc(-c2cccnc2)nc2c1ncn2C [IV-b-2]
MDA-MB-231 cells
  degree of vacuolation, 1 μM, 24 h: +
  degree of vacuolation, 1 μM, 48 h: +
  degree of vacuolation, 10 μM, 24 h: +
  degree of vacuolation, 10 μM, 48 h: +
JeKo-1 cells; Homo sapiens, JeKo-1, 120 h
  IC50: 7.12 µM

## Cc1ccc(NC(=O)c2cccc(C(F)(F)F)c2)cc1Nc1nc(-c2cccnc2)nc2c1ncn2C [IV-b-7]
MDA-MB-231 cells
  degree of vacuolation, 1 μM, 24 h: +
  degree of vacuolation, 1 μM, 48 h: +
  degree of vacuolation, 10 μM, 24 h: +
  degree of vacuolation, 10 μM, 48 h: +
JeKo-1 cells; Homo sapiens, JeKo-1, 120 h
  inhibition at 10 µM: 19.1%

## Cc1ccc(C(=O)Nc2cccc(C(F)(F)F)c2)cc1Nc1nc(-c2cccnc2)nc2cc[nH]c12 [V-a-5]
MDA-MB-231 cells
  degree of vacuolation, 1 μM, 24 h: +++
  degree of vacuolation, 1 μM, 48 h: +++
  degree of vacuolation, 10 μM, 24 h: ++
  degree of vacuolation, 10 μM, 48 h: ++
JeKo-1 cells; Homo sapiens, JeKo-1, 120 h
  IC50: 3.08 µM

## Cc1ccc(C(=O)Nc2cccc(C(F)(F)F)c2)cc1Nc1nc(-c2ccncc2)nc2cc[nH]c12 [V-a-6]
MDA-MB-231 cells
  degree of vacuolation, 1 μM, 24 h: ++
  degree of vacuolation, 1 μM, 48 h: ++
  degree of vacuolation, 10 μM, 24 h: ++
  degree of vacuolation, 10 μM, 48 h: ++
JeKo-1 cells; Homo sapiens, JeKo-1, 120 h
  IC50: 0.987 µM

## Cc1ccc(NC(=O)c2cccc(C(F)(F)F)c2)cc1Nc1nc(-c2cccnc2)nc2ccn(C)c12 [V-b-1]
MDA-MB-231 cells
  degree of vacuolation, 1 μM, 24 h: ++
  degree of vacuolation, 1 μM, 48 h: ++
  degree of vacuolation, 10 μM, 24 h: ++
  degree of vacuolation, 10 μM, 48 h: ++
JeKo-1 cells; Homo sapiens, JeKo-1, 120 h
  inhibition at 10 µM: 12.3%

## Cc1ccc(C(=O)Nc2cccc(C(F)(F)F)c2)cc1Nc1nc(-c2ccncc2)nc2ccn(C)c12 [V-b-4]
MDA-MB-231 cells
  degree of vacuolation, 1 μM, 24 h: ++
  degree of vacuolation, 1 μM, 48 h: ++
  degree of vacuolation, 10 μM, 24 h: ++
  degree of vacuolation, 10 μM, 48 h: ++
JeKo-1 cells; Homo sapiens, JeKo-1, 120 h
  inhibition at 10 µM: 17.2%

## Cc1ccc(C(=O)Nc2cccc(C(F)(F)F)c2)cc1Nc1nc(-c2cccnc2)cn2ccnc12 [VI-a-2]
MDA-MB-231 cells
  degree of vacuolation, 1 μM, 24 h: +
  degree of vacuolation, 1 μM, 48 h: +
  degree of vacuolation, 10 μM, 24 h: +
  degree of vacuolation, 10 μM, 48 h: +
JeKo-1 cells
  cell growth inhibition rate of compounds at 10 μM: 38.6%^a

## Cc1ccc(C(=O)Nc2cccc(C(F)(F)F)c2)cc1Nc1nc(-c2cccnc2)cn2ccnc12 [VI-a-6]
MDA-MB-231 cells
  degree of vacuolation, 1 μM, 24 h: −
  degree of vacuolation, 10 μM, 24 h: −
JeKo-1 cells
  cell growth inhibition rate of compounds at 10 μM: 11.3%^a
